Laboratory results taken from article PMC10584882 (Communications Biology, 2023).
Several values for one entry are separate records, joined by “and”; a condition that tells them apart may be missing. Identical values can stand only once. Entries after “also recorded” stand apart in the source; their conditions may differ.

What was measured:
SARS-CoV-2-GFP = tested on: SARS-CoV-2-GFP; parameters: method as in PMID 33811162; conditions: VERO E6 cell-based SARS-CoV-2 infection assays; cited from earlier work
SARS-CoV-2 = experiment: Anti-viral experiment with Golden Syrian hamsters: histopathology scores; type: in vivo, Golden Syrian hamsters (Mesocricetus auratus); conditions: for trachea, epithelial damage (score) / bronchi, epithelial damage (score) / pulmonary parenchyma damage (score) / submucosal damage (score) / tissue repair (score) / vascular damage (score): 1 mg/kg s.c., individual hamsters; for trachea, epithelial damage (score): 0 normal, 1 mild, 2 moderate, 3 severe tracheitis; for bronchi, epithelial damage (score) / pulmonary parenchyma damage (score) / submucosal damage (score) / tissue repair (score) / vascular damage (score): sum of five lung lobes, maximum 15
[1] = S-Calpeptin toxicity experiment in Golden Syrian hamsters (weight, blood cell count, histopathology); type: in vivo, Golden Syrian hamsters (Mesocricetus auratus); parameters: leukocytes / neutrophils / lymphocytes / monocytes: unit not given here; conditions: for leukocytes / lymphocytes / monocytes / neutrophils: blood cell count
[2] = 1 mg/kg S-Calpeptin, individual animals 1-3, 1 mg/kg
[3] = 2 mg/kg S-Calpeptin, individual animals 7-9, 2 mg/kg
[4] = 3 mg/kg S-Calpeptin, individual animals 10-12, 3 mg/kg

Question: For `CCCC[C@@H](C=O)NC(=O)[C@H](CC(C)C)NC(=O)OCc1ccccc1` [Calpeptin, reference compound], which “concentration giving high suppression of virus replication” value (SARS-CoV-2-GFP) is on record?
Answer: Its value is “below 100 nM”.

Question: For `CCCC[C@H](NC(=O)[C@H](CC(C)C)NC(=O)OCc1ccccc1)C(O)S(=O)(=O)[O-].[Na+]` (stereo partly drawn) [S-Calpeptin], which “trachea, epithelial damage (score)” value (SARS-CoV-2; day 3 p.i., 1 mg/kg) is on record?
Answer: Its value is 0 and 1.

Question: And the “bronchi, epithelial damage (score)” value (SARS-CoV-2; day 3 p.i., 1 mg/kg)?
Answer: Its value is 6 and 3 and 1 and 4.

Question: What about the “pulmonary parenchyma damage (score)” value (SARS-CoV-2; day 3 p.i., 1 mg/kg) of the same compound?
Answer: The value was 7 and 4 and 5 and 8.

Question: And the “submucosal damage (score)” value (SARS-CoV-2; day 3 p.i., 1 mg/kg)?
Answer: Its value is 7 and 2 and 1 and 5.

Question: What about the “tissue repair (score)” value (SARS-CoV-2; day 3 p.i., 1 mg/kg) of the same compound?
Answer: The value was 7 and 6 and 2 and 4.

Question: What about the “vascular damage (score)” value (SARS-CoV-2; day 3 p.i., 1 mg/kg) of the same compound?
Answer: The value was 7 and 8 and 3 and 9.

Question: And the “trachea, epithelial damage (score)” value (SARS-CoV-2; day 5 p.i., 1 mg/kg)?
Answer: The value was 0 and 1 and 2.

Question: What about the “bronchi, epithelial damage (score)” value (SARS-CoV-2; day 5 p.i.) of the same compound?
Answer: The value was 2.

Question: What about the “pulmonary parenchyma damage (score)” value (SARS-CoV-2; day 5 p.i., 1 mg/kg) of the same compound?
Answer: The value was 7 and 10 and 9.

Question: What about the “submucosal damage (score)” value (SARS-CoV-2; day 5 p.i., 1 mg/kg) of the same compound?
Answer: Its value is 8 and 11 and 9 and 10.

Question: And the “tissue repair (score)” value (SARS-CoV-2; day 5 p.i., 1 mg/kg)?
Answer: The value was 6 and 8 and 9 and 10.

Question: And the “vascular damage (score)” value (SARS-CoV-2; day 5 p.i., 1 mg/kg)?
Answer: The value was 10 and 9 and 11 and 13.

Question: And the “trachea, epithelial damage (score)” value (SARS-CoV-2; day 7 p.i., 1 mg/kg)?
Answer: Its value is 0 and 1.

Question: And the “bronchi, epithelial damage (score)” value (SARS-CoV-2; day 7 p.i., 1 mg/kg)?
Answer: Its value is 2 and 3 and 1.

Question: And the “pulmonary parenchyma damage (score)” value (SARS-CoV-2; day 7 p.i., 1 mg/kg)?
Answer: The value was 8 and 7 and 10.

Question: What about the “submucosal damage (score)” value (SARS-CoV-2; day 7 p.i., 1 mg/kg) of the same compound?
Answer: Its value is 10 and 11 and 14.

Question: And the “tissue repair (score)” value (SARS-CoV-2; day 7 p.i., 1 mg/kg)?
Answer: Its value is 15 and 14.

Question: And the “vascular damage (score)” value (SARS-CoV-2; day 7 p.i., 1 mg/kg)?
Answer: Its value is 7 and 5 and 9.

Question: And the “histopathology lesion scores versus untreated (in words)” value (SARS-CoV-2; infected hamsters, 1 mg/kg s.c. daily)?
Answer: The value was “no statistically significant differences in lesion scores”.

Question: What about the “lung vascular damage scores versus untreated (in words)” value (SARS-CoV-2; infected hamsters, 1 mg/kg s.c. daily, days 5 and 7 p.i.) of the same compound?
Answer: The value was “lower scores for vascular damage compared to the untreated group on days 5 and 7 p.i., these results were not statistically significant”.

Question: What about the “body weight, summarized data, average” value ([1]; 1 mg/kg S-Calpeptin, day 0, relative to day 0) of the same compound?
Answer: Its value is 100%.

Question: And the “body weight, summarized data, average” value ([1]; 1 mg/kg S-Calpeptin, day 1, relative to day 0)?
Answer: Its value is 100.862%.

Question: What about the “body weight, individual data” value ([1]; 1 mg/kg S-Calpeptin, day 2, individual animals A1-A3) of the same compound?
Answer: Its value is 124 g.

Question: And the “body weight, summarized data, average” value ([1]; 1 mg/kg S-Calpeptin, day 2, relative to day 0)?
Answer: Its value is 100.893%.

Question: And the “body weight, summarized data, average” value ([1]; 1 mg/kg S-Calpeptin, day 3, relative to day 0)?
Answer: Its value is 100.862%.

Question: And the “body weight, summarized data, average” value ([1]; 1 mg/kg S-Calpeptin, day 4, relative to day 0)?
Answer: The value was 101.724%.

Question: And the “body weight, summarized data, average” value ([1]; 1 mg/kg S-Calpeptin, day 5, relative to day 0)?
Answer: Its value is 102.852%.

Question: What about the “body weight, summarized data, average” value ([1]; 1 mg/kg S-Calpeptin, day 6, relative to day 0) of the same compound?
Answer: The value was 102.288%.

Question: And the “body weight, summarized data, average” value ([1]; 2 mg/kg S-Calpeptin, day 0, relative to day 0)?
Answer: The value was 100%.

Question: What about the “body weight, summarized data, average” value ([1]; 2 mg/kg S-Calpeptin, day 1, relative to day 0) of the same compound?
Answer: Its value is 100.285%.

Question: And the “body weight, summarized data, average” value ([1]; 2 mg/kg S-Calpeptin, day 2, relative to day 0)?
Answer: The value was 100.287%.

Question: And the “body weight, individual data” value ([1]; 2 mg/kg S-Calpeptin, day 3, individual animals A7-A9)?
Answer: Its value is 120 g.

Question: What about the “body weight, summarized data, average” value ([1]; 2 mg/kg S-Calpeptin, day 3, relative to day 0) of the same compound?
Answer: The value was 101.388%.

Question: What about the “body weight, summarized data, average” value ([1]; 2 mg/kg S-Calpeptin, day 4, relative to day 0) of the same compound?
Answer: The value was 100.836%.

Question: What about the “body weight, summarized data, average” value ([1]; 2 mg/kg S-Calpeptin, day 5, relative to day 0) of the same compound?
Answer: The value was 101.368%.

Question: What about the “body weight, individual data” value ([1]; 2 mg/kg S-Calpeptin, day 6, individual animals A7-A9) of the same compound?
Answer: The value was 120 g.

Question: And the “body weight, summarized data, average” value ([1]; 2 mg/kg S-Calpeptin, day 6, relative to day 0)?
Answer: The value was 101.919%.

Question: And the “body weight, individual data” value ([1]; 3 mg/kg S-Calpeptin, day 0, individual animals A10-A12)?
Answer: Its value is 124 g and 135 g.

Question: And the “body weight, summarized data, average” value ([1]; 3 mg/kg S-Calpeptin, day 0, relative to day 0)?
Answer: The value was 100%.

Question: And the “body weight, individual data” value ([1]; 3 mg/kg S-Calpeptin, day 1, individual animals A10-A12)?
Answer: Its value is 124 g and 135 g.

Question: What about the “body weight, summarized data, average” value ([1]; 3 mg/kg S-Calpeptin, day 1, relative to day 0) of the same compound?
Answer: The value was 100.275%.

Question: And the “body weight, individual data” value ([1]; 3 mg/kg S-Calpeptin, day 2, individual animals A10-A12)?
Answer: Its value is 124 g and 135 g.

Question: What about the “body weight, summarized data, average” value ([1]; 3 mg/kg S-Calpeptin, day 2, relative to day 0) of the same compound?
Answer: The value was 100.275%.

Question: And the “body weight, summarized data, average” value ([1]; 3 mg/kg S-Calpeptin, day 3, relative to day 0)?
Answer: Its value is 101.582%.

Question: What about the “body weight, summarized data, average” value ([1]; 3 mg/kg S-Calpeptin, day 4, relative to day 0) of the same compound?
Answer: Its value is 102.133%.

Question: And the “body weight, summarized data, average” value ([1]; 3 mg/kg S-Calpeptin, day 5, relative to day 0)?
Answer: Its value is 102.402%.

Question: And the “body weight, summarized data, average” value ([1]; 3 mg/kg S-Calpeptin, day 6, relative to day 0)?
Answer: The value was 102.671%.

Question: And the leukocytes [1, 2]?
Answer: Its leukocytes is 4150 and 4010 and 4200.

Question: What about the lymphocytes [1, 2] of the same compound?
Answer: The lymphocytes was 2407 and 2366 and 2310.

Question: What about the monocytes [1, 2] of the same compound?
Answer: The monocytes was 581 and 521 and 798.

Question: What about the neutrophils [1, 2] of the same compound?
Answer: The neutrophils was 1079 and 1083 and 924.

Question: And the leukocytes [1, 3]?
Answer: Its leukocytes is 1780 and 2200 and 1620.

Question: And the lymphocytes [1, 3]?
Answer: The lymphocytes was 1104 and 748 and 486.

Question: What about the monocytes [1, 3] of the same compound?
Answer: The monocytes was 214 and 352 and 680.

Question: And the neutrophils [1, 3]?
Answer: Its neutrophils is 427 and 1056 and 389.

Question: And the leukocytes [1, 4]?
Answer: The leukocytes was 3000 and 1360 and 2190.

Question: And the lymphocytes [1, 4]?
Answer: The lymphocytes was 1860 and 653 and 1270.

Question: And the monocytes [1, 4]?
Answer: The monocytes was 450 and 163 and 350.

Question: And the neutrophils [1, 4]?
Answer: The neutrophils was 630 and 517 and 569.

Question: What about the “blood cell count finding (in words)” value ([1]; hamsters, 2 mg/kg or 3 mg/kg s.c. daily, end of seven-days protocol) of the same compound?
Answer: The value was “marked leukopenia; also recorded: blood leukopenia”.

Question: What about the “acute toxicity-related clinical signs or weight loss (in words)” value ([1]; hamsters, 1, 2 or 3 mg/kg s.c. daily) of the same compound?
Answer: Its value is “no signs of acute toxicity; also recorded: did not display acute toxicity-related clinical signs”.

Question: And the “side effects (in words)” value ([1]; hamsters, daily dose of 1 mg/kg s.c. over seven days)?
Answer: The value was “no apparent side effects”.
